Laboratory results published in PubChem BioAssay (NCI).
“And” between values parts separate entries of the source, which are not always exact repeats. Equal entries are not always repeated.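 Growth conditions: 96-well plates. Treatment: test compound, 48 hours, 5 concentrations. Analysis: linear interpolation between bracketing concentrations; unreached endpoints set to highest concentration. GI50: concentration for 50% inhibition of growth. Definition used: TGI = concentration required for complete inhibition of growth.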

Experiments:
Assay in all cases: NCI tumour cell line growth inhibition, 48 h
[1] = tested on: DU-145 prostate
[2] = tested on: A498 renal
[3] = tested on: HL-60(TB) leukemia
[4] = tested on: PC-3 prostate
[5] = tested on: SNB-19 CNS
[6] = tested on: ACHN renal
[7] = tested on: RPMI-8226 leukemia
[8] = tested on: UACC-257 melanoma
[9] = tested on: HCT-116 colon
[10] = tested on: NCI-H522 lung

O=C1OCC2=C1C(c1ccc(Cl)c(Cl)c1)c1cc3c(cc1N2CCO)OCCO3 (configuration not stated)
GI50 [1]: 0.211 µM | TGI [1]: 6.53 µM | GI50 [2]: 0.147 µM | TGI [2]: 1.84 µM | GI50 [3]: 0.135 µM | TGI [3]: 0.587 µM | GI50 [4]: 0.189 µM | TGI [4]: 8.66 µM | GI50 [5]: 0.327 µM | TGI [5]: > 50 µM | GI50 [6]: 0.334 µM | TGI [6]: 44.9 µM | GI50 [7]: 0.405 µM | TGI [7]: 12.9 µM | GI50 [8]: 0.181 µM | TGI [8]: 19.4 µM | GI50 [9]: 0.213 µM | TGI [9]: 8.78 µM | GI50 [10]: 0.0852 µM | TGI [10]: 0.283 µM

O=C1NC(=O)C(N2C(=O)c3ccccc3C2=O)CC1O (configuration not stated)
GI50 [1]: > 100 µM | TGI [1]: > 100 µM | GI50 [2]: > 100 µM | TGI [2]: > 100 µM | GI50 [3]: > 100 µM | TGI [3]: > 100 µM | GI50 [4]: > 100 µM | TGI [4]: > 100 µM | GI50 [5]: > 100 µM | TGI [5]: > 100 µM | GI50 [6]: > 100 µM | TGI [6]: > 100 µM | GI50 [7]: > 100 µM | TGI [7]: > 100 µM | GI50 [8]: > 100 µM | TGI [8]: > 100 µM | GI50 [9]: > 100 µM | TGI [9]: > 100 µM | GI50 [10]: > 100 µM | TGI [10]: > 100 µM

O=C(/C=C/c1cc2ccccc2[nH]c1=O)/C=C/c1cc2ccccc2[nH]c1=O
GI50 [1]: 12.3 µM | TGI [1]: > 70.3 µM | GI50 [2]: > 50.1 µM | TGI [2]: > 100 µM | GI50 [3]: > 32.3 µM | TGI [3]: > 100 µM | GI50 [4]: > 21.5 µM | TGI [4]: > 81.1 µM | GI50 [5]: 21.1 µM | TGI [5]: > 100 µM | GI50 [6]: 11.2 µM | TGI [6]: > 95.3 µM | GI50 [7]: 4.02 µM | TGI [7]: > 40.1 µM | GI50 [8]: 8.32 µM | TGI [8]: 19.6 µM | GI50 [9]: 1.28 µM | TGI [9]: 2.09 µM | TGI [10]: > 47 µM

Nc1nc(OCc2ccccc2)c2[nH]cnc2n1
GI50 [1]: 33.6 µM and 30.1 µM | TGI [1]: 266 µM | GI50 [2]: 15.2 µM | TGI [2]: 183 µM and 71.3 µM | GI50 [3]: 39.8 µM and 17.7 µM | TGI [3]: 181 µM and 57.8 µM | GI50 [4]: 53.7 µM | TGI [4]: 628 µM | GI50 [5]: 86.2 µM and 33 µM | TGI [5]: 400 µM and 213 µM | GI50 [6]: 23.1 µM and 23.4 µM | TGI [6]: 244 µM and 125 µM | GI50 [7]: 50 µM and 21.6 µM | TGI [7]: 69 µM | GI50 [8]: 39.8 µM and 157 µM | TGI [8]: 400 µM and 736 µM | GI50 [9]: 34.7 µM and 34.5 µM | TGI [9]: 209 µM and 137 µM | GI50 [10]: 23.6 µM and 16.5 µM | TGI [10]: 135 µM and 69.4 µM

COc1cc2c(cc1OCCCn1c(-c3ccccn3)nc3ccccc31)N=C[C@@H]1CCCN1C2=O
GI50 [1]: 2.72 µM | TGI [1]: 6.72 µM | GI50 [2]: 3.96 µM | TGI [2]: 14.5 µM | GI50 [3]: 4.45 µM | TGI [3]: > 24.6 µM | GI50 [4]: 1.44 µM | TGI [4]: > 30.6 µM | GI50 [5]: 3.61 µM | TGI [5]: 18.1 µM | GI50 [6]: 2.23 µM | TGI [6]: 6.28 µM | GI50 [7]: 8.8 µM | TGI [7]: > 20.8 µM | GI50 [8]: 2.11 µM | TGI [8]: 9.42 µM | GI50 [9]: 1.35 µM | TGI [9]: 7.56 µM | GI50 [10]: 1.76 µM | TGI [10]: 6.81 µM

C=CC(=O)Nc1cccc(Oc2nc(Nc3ccc(N4CCN(C)CC4)cc3)nc3ccsc23)c1
GI50 [1]: 2.41 µM and 2.04 µM | TGI [1]: > 10 µM and 6.24 µM | GI50 [2]: 3.51 µM and 0.862 µM | TGI [2]: > 10 µM and 9.65 µM | GI50 [3]: 1.43 µM | TGI [3]: 4.09 µM | GI50 [4]: 2.36 µM and 2.87 µM | TGI [4]: 8.25 µM and 7.33 µM | GI50 [5]: 3.51 µM and 3.35 µM | TGI [5]: > 10 µM and 14.1 µM | GI50 [6]: 1.07 µM | TGI [6]: 2.51 µM | GI50 [7]: 2.01 µM and 1.96 µM | TGI [7]: 4.91 µM and 4.62 µM | GI50 [8]: 2.6 µM and 1.98 µM | TGI [8]: 8.59 µM and 3.83 µM | GI50 [9]: 1.48 µM and 1.81 µM | TGI [9]: 2.93 µM and 3.33 µM | GI50 [10]: 0.43 µM and 1.27 µM | TGI [10]: 2.21 µM and 3.04 µM

CC(=O)/C=C/c1cn(C(=O)OC(C)(C)C)c2ccc(Br)cc12
GI50 [1]: 14.1 µM | TGI [1]: 45.1 µM | GI50 [2]: 20.1 µM | TGI [2]: 39.7 µM | GI50 [3]: 29.6 µM | TGI [3]: > 100 µM | GI50 [4]: 18.2 µM | TGI [4]: > 79.2 µM | GI50 [5]: 15.4 µM | TGI [5]: 30.1 µM | GI50 [6]: 11.6 µM | TGI [6]: 24.8 µM | GI50 [7]: 9.41 µM | TGI [7]: > 66.5 µM | GI50 [8]: > 70.3 µM | TGI [8]: > 100 µM | GI50 [9]: 8.39 µM | TGI [9]: 21.6 µM | GI50 [10]: 17.7 µM | TGI [10]: 63.3 µM

COc1cc2nc(N3CCCC3)nc(NCCc3ccccc3)c2cc1OC
GI50 [1]: 2.11 µM | TGI [1]: 5.11 µM | GI50 [2]: 1.64 µM | TGI [2]: 3.5 µM | GI50 [3]: 1.85 µM | TGI [3]: 4.25 µM | GI50 [4]: 1.68 µM | TGI [4]: 3.91 µM | GI50 [5]: 1.74 µM | TGI [5]: 3.3 µM | GI50 [6]: 1.67 µM | TGI [6]: 3.04 µM | GI50 [7]: 2.18 µM | TGI [7]: 5.75 µM | GI50 [8]: 1.89 µM | TGI [8]: 3.85 µM | GI50 [10]: 1.99 µM | TGI [10]: 4.54 µM

O=C(O)c1ccc(C(=O)c2ccccc2)c(C(=O)O)c1
TGI [1]: > 100 µM | TGI [2]: > 100 µM | TGI [3]: > 100 µM | TGI [4]: > 100 µM | TGI [5]: > 100 µM | TGI [6]: > 100 µM | TGI [7]: > 100 µM | TGI [8]: > 100 µM | TGI [9]: > 100 µM | TGI [10]: > 100 µM
